# In publication PMC5703532, “Establishment of an indirect ELISA for detection of the novel antifibrotic peptide M10” (PLoS ONE, 2017):
# Peptide text beside a SMILES is read from it.
# Tests used:
# [1] = in vivo, ip, 1 mg/kg
# Description: (§2) Mice (n = 30), C57BL/6 males and females 8–10 weeks old weighing 20–25 g, purchased from Jackson Laboratories (Bar Harbor, ME) were used in this study. Mice were housed in ventilated racks in specific pathogen free conditions and were provided with food and water available ad libitum. M10 peptide was solubilized in water and administered intraperitoneally in a dose of 1 mg/kg. Mice were sacrificed by isoflurane overdose, and blood samples were collected by cardiac puncture in the presence of 0.01% of Na-Citrate at time intervals of 15 min, 30 min, 1, 2, 4, 6, 12, 24, and 48 hours after injection. The blood samples (n = 3/group) were centrifuged at 2500 rpm for 10 min, and plasma samples were stored at -80°C. Plasma samples collected from mice injected with water intraperitoneally (n = 3) were used as a negative control.
# (§3) M10 concentration was measured by indirect ELISA developed in our laboratory. Known concentrations of pharmaceutical grade M10 peptide (GenScript, Piscataway, NJ) with purity more than 98% were used to generate the standard curve. Briefly, 100μl of known concentration of M10 (range: 10 ng/ml to 500 ng/ml), blank (PBS without M10), and 100μl of the diluted plasma sample were plated in triplicate in high-affinity polystyrene micro-titer plates. Samples were incubated with gentle rocking overnight at 4°C and blocked with 5% bovine serum albumin in PBS. After washing, samples were incubated for 2 hours at room temperature with anti-cMET rabbit antibody (Santa Cruz Biotechnology, Santa Cruz, CA), followed by 1hour incubation with HRP-conjugated anti-Rabbit IgG (Rockland, Limerick, PA). M10 was detected with ultra-TMB (3, 3’, 5, 5’-tetramethylbenzidine)-substrate, and the reaction was terminated by using 2M sulfuric acid. Absorbance was measured at 450 nm by Spectra Max Plus spectrophotometer. Concentrations of unknown samples were then calculated from their corresponding optical density (OD) values by Softmax Pro 4.8 software (Molecular Devices, Sunnyvale, CA) using the standard curve generated from the known concentrations of M10. Control plasma samples collected from mice with intraperitoneal water injection were run in triplicate with each experiment, mean was calculated, and samples were normalized by subtracting the negative control mean value. Final concentrations were calculated by adjusting the sample dilution factor.
# (§4) To obtain the pharmacokinetic profile of M10 in mouse plasma, C57Bl6 mice were injected intraperitoneally with M10 at a dose of 1mg/kg of body weight. Plasma samples were collected by cardiac puncture in the presence of 0.01% of Na-Citrate at time intervals of 15 min, 30 min, 1h, 2h, 4h, 6h, 12 h, 24 h, and 48 h following injection. Samples were diluted in PBS in order to fit within the range of the standard curves and then tested using the M10 ELISA. Concentration of M10 in plasma samples was calculated by Softmax Pro 4.8 software using the standard curve generated from the known concentration of M10. The samples were normalized by subtracting the negative controls represented by plasma samples obtained from mice injected with H2O.
# [2] = test system: Smad2; conditions: cited from earlier work
# Text: (§1) We recently discovered a 10 amino acid antifibrotic peptide (M10) with antifibrotic properties in vitro and in a murine model of lung fibrosis, which is a natural cleavage product by caspase-3 of the cytoplasmic tail of the c-MET receptor tyrosine kinase. Following binding of hepatocyte growth factor (HGF), c-MET undergoes auto phosphorylation at tyrosine residues in its cytoplasmic domain and initiates a cascade of signal transduction events leading to specific cellular responses implicated in embryonic development and tissue regeneration after injury.
# [3] = test system: bleomycin-induced mouse model of lung fibrosis; conditions: cited from earlier work
# Text: as §1
# [4] = test system: human lung and skin fibroblasts; conditions: cited from earlier work
# Text: as §1
# [5] = in vivo; conditions: both, C57BL/6, mouse, ip, 1 mg/kg
# Description: as §2, §3, §4
# [6] = test system: caspases, thrombin, factor Xa, trypsin and granzyme B; conditions: cited from earlier work
# [7] = Mean M10 concentration in plasma
smiles,measurement,setting,value
C[C@H](NC(=O)[C@@H]1CCCN1C(=O)[C@H](CCCNC(=N)N)NC(=O)[C@@H](N)[C@@H](C)O)C(=O)N[C@@H](CO)C(=O)N[C@@H](Cc1ccccc1)C(=O)N[C@@H](Cc1c[nH]c2ccccc12)C(=O)N[C@@H](CCC(=O)O)C(=O)N[C@H](C(=O)N[C@@H](CO)C(=O)O)[C@@H](C)O [M10] (H-TRPASFWETS-OH; N-terminus and C-terminus assumed),Mean M10 concentration in plasma,"[1]; both, C57BL/6, mouse, 24 h",1216 ng/mL
same,Cmax (peak plasma concentration),[1]; mouse,4861.5 ± 11.5 ng/mL
same,Time by which plasma concentration declined to minimal (detectable) levels,[1]; mouse,≤ 48 h
same,Interaction with Smad2,[2],interacts with Smad2
same,Effect on collagen,[3],reduces collagen
same,Effect on collagen,[4],reduces collagen
same,AUC(0-t),[5],72500 ± 2390 ng·h/mL
same,Tmax,[5],6 h
same,half-life,[5],6.8 ± 0.7 h
same,level at 4 h,[5]; [7],3590 ng/mL
same,level at 6 h,[5]; [7],4550 ng/mL
same,level at 12 h,[5]; [7],3140 ng/mL
same,level at 24 h,[5]; [7],801 ng/mL
same,level at 48 h,[5]; [7],366 ng/mL
same,Resistance to mammalian proteases,[6],resistance to many mammalian proteases
